Assay results: patent US10179816B2, “Pharmaceutical compositions comprising an antibody which binds the human anti-Müllerian hormone receptor type II” (LABORATOIRE FRANCAIS DU FRACTIONNEMENT DES BIOTECHNOLOGIES, priority 2011, dated 2019)
“And” between values parts separate entries of the source, which are not always exact repeats. Equal values may be shown once. “Also recorded” adds a separate entry of the source. Read-outs that look alike come from different tables or passages of the source.

How the values were obtained:
[1] = molecular target: T1, human anti-Müllerian hormone type II receptor (AMHR-II) (Homo sapiens, UniProt Q16671); details: compared with unmutated humanized and chimeric 12G4; cited from earlier work
T1 sequence (Q16671 18-573): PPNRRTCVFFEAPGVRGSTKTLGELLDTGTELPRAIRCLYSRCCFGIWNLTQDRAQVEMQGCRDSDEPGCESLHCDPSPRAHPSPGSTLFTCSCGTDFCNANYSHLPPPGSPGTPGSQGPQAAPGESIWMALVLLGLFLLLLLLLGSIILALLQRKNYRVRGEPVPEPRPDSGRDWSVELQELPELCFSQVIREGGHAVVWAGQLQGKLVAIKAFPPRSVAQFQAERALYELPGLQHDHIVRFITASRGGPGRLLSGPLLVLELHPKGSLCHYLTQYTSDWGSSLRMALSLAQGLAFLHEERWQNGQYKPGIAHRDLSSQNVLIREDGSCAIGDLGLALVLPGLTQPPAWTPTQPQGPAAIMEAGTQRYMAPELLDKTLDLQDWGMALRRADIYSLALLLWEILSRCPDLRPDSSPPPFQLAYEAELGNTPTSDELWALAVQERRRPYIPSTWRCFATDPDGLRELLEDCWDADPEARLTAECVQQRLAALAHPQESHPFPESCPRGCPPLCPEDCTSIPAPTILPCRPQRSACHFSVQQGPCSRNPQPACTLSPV

[2] = system: Cov434-AMHRII Asc1a5 tumour cells;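 note: control mice received NaCl solution, survival endpoint was euthanasia once tumour volume hit 2000 mm^3 or on ethical grounds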
Text: A solution of NaCl was used as the control.
(§1) The animals were sacrificed when the tumour volumes reached 2000 mm^3 or for ethical reasons. The curves of mean values and median values as well as the statistical analyses were stopped when 20% of the mice in the group were dead.

[3] = system: Cov434-AMHRII Asc1a5 tumour cells (a cell line of human ovarian cancer); test: Anti-tumour activity of 3C23K alone or with paclitaxel in Cov434-AMHRII Asc1a5 xenograft (tumour volume, T/C ratio, statistical analysis); details: for Individual tumour volume: individual mice;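 for all read-outs here: subcutaneous Cov434-AMHRII Asc1a5 xenografts in female Swiss nude mice, tumour volume from length×width×height/2 in mm^3, randomized D13, dosing from D14, 8 mice per group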
Experimental: Female Swiss nude mice (Harlan Laboratories) were injected subcutaneously (s.c.) with 7.10^6 cells of Cov434-AMHRII Asc1a5 (cell line of human ovarian cancer transfected with cDNA AMHRII) in Matrigel (1:1 ratio) under a volume of 150 μL on day 0 (D0).
The mice were randomized on D13, when the volume of the tumours was between 58 and 150 mm^3, and the treatments began on D14 (8 mice per group).
The tumours were usually measured twice weekly. Tumour volume (TV) was calculated using the following formula, in which the length corresponds to the largest of the tumour diameters, the width corresponds to the smallest of the tumour diameters and the tumour height: TV (mm^3)=(length×width×height)/2.
In addition, for each group, curves of tumour growth were plotted using the calculated mean tumour volumes or the median tumour volumes.
as §1
In one experiment with 8 mice per group, the curves and analyses were stopped when fewer than 7 values per group had been obtained (7 mice alive).
The statistical differences between the different groups were analysed by ANOVA comparison using the Statgraphics centurion XV software.
The ANOVA table breaks down the variance into two components: an inter-group component and an intra-group component. The ratio F is the ratio of the inter-group estimate to the intra-group estimate. When the P value of test F is greater than or equal to 0.05, there is no statistically significant difference between the mean values of the two groups, with a confidence level of 95%. P values less than 0.05 indicate a significant difference between the mean values of the two groups with a confidence level of 95%.
A Kruskal-Wallis test was also carried out. When the P value is greater than or equal to 0.05, there is no statistically significant difference between the median of the two groups, with a confidence level of 95%. P values less than 0.05 indicate a significant difference between the medians of the two groups with a confidence level of 95%.
The treatment is initiated on day 14 after injection.

[4] = D13, contrast vs paclitaxel 15 mg/kg q7d4
[5] = D20, contrast vs paclitaxel 15 mg/kg q7d4
[6] = D24, contrast vs paclitaxel 15 mg/kg q7d4
[7] = D27, contrast vs paclitaxel 15 mg/kg q7d4
[8] = D31, contrast vs paclitaxel 15 mg/kg q7d4
[9] = D35, contrast vs paclitaxel 15 mg/kg q7d4
[10] = D41, contrast vs paclitaxel 15 mg/kg q7d4
[11] = Day 13, randomization, before treatment

3C23K: mutated humanized 12G4 monoclonal antibody binding AMHR-II, produced by the 3C23K clone; light chain SEQ ID NO: 11, heavy chain SEQ ID NO: 13
Affinity for AMHR-II (in words) [1]: affinity far better than that of the unmutated humanized 12G4 antibody
Survival parameter: logrank test chi-squared ([2]; contrast vs control): 11.15
Survival parameter: logrank test chi-squared ([2]; contrast vs paclitaxel 15 mg/kg q7d4): 12.36
Survival parameter Mean ([2]; group of 8 mice): 70 days
Survival parameter Median ([2]; group of 8 mice): 73 days
Observations: End of experiment TV ([2]; individual mice alive at day 83): 1615 mm3 and 1463 mm3
Observations ([2]; individual mice alive at day 83, end of experiment): End of experiment no
survival parameter ([2]; individual mice, experiment ended on day 83): 51 Days and 55 Days and 62 Days and 69 Days and 76 Days and 83 Days (3×)
Statistical analysis based on the survival parameter (in words) ([2]; mouse, in vivo): significant anti-tumour activity; also recorded: significantly different from that of paclitaxel in monotherapy
ANOVA F-ratio ([3]; D13, contrast vs control): 0.00
Kruskal-Wallis Test ([3]; D13, contrast vs control): 0.00
ANOVA F-ratio [3, 4]: 0.11
Kruskal-Wallis Test [3, 4]: 0.03
ANOVA F-ratio ([3]; D20, contrast vs control): 5.33
Kruskal-Wallis Test ([3]; D20, contrast vs control): 4.44
ANOVA F-ratio [3, 5]: 9.54
Kruskal-Wallis Test [3, 5]: 6.39
Statistical analysis of tumour volume (in words) ([3]; D20 to D41): significant anti-tumour activity; also recorded: significantly different from that of paclitaxel in monotherapy
ANOVA F-ratio ([3]; D24, contrast vs control): 9.83
Kruskal-Wallis Test ([3]; D24, contrast vs control): 4.41
ANOVA F-ratio [3, 6]: 8.53
Kruskal-Wallis Test [3, 6]: 8.70
ANOVA F-ratio ([3]; D27, contrast vs control): 8.21
Kruskal-Wallis Test ([3]; D27, contrast vs control): 4.87
ANOVA F-ratio [3, 7]: 8.92
Kruskal-Wallis Test [3, 7]: 8.66
ANOVA F-ratio ([3]; D31, contrast vs control): 10.00
Kruskal-Wallis Test ([3]; D31, contrast vs control): 4.86
ANOVA F-ratio [3, 8]: 8.01
Kruskal-Wallis Test [3, 8]: 8.66
ANOVA F-ratio ([3]; D35, contrast vs control): 8.26
Kruskal-Wallis Test ([3]; D35, contrast vs control): 5.11
ANOVA F-ratio [3, 9]: 10.47
Kruskal-Wallis Test [3, 9]: 8.65
ANOVA F-ratio ([3]; D41, contrast vs control): 11.82
Kruskal-Wallis Test ([3]; D41, contrast vs control): 5.36
ANOVA F-ratio [3, 10]: 12.64
Kruskal-Wallis Test [3, 10]: 7.71
Mean tumour volume [3, 11]: 92 mm^3
Median tumour volume [3, 11]: 89 mm^3
Individual tumour volume ([3]; Day 13): 144 mm3 and 98 mm3 (2×) and 90 mm3 and 76 mm3 and 73 mm3
Mean tumour volume ([3]; Day 20): 111 mm^3
Median tumour volume ([3]; Day 20): 107 mm^3
Individual tumour volume ([3]; Day 20): 105 mm3 and 135 mm3 and 88 mm3 and 140 mm3 and 150 mm3 and 60 mm3
Mean tumour volume ([3]; Day 24): 97 mm^3
Median tumour volume ([3]; Day 24): 93 mm^3
Individual tumour volume ([3]; Day 24): 158 mm3 and 180 mm3 and 0 mm3 and 102 mm3 and 114 mm3 and 68 mm3
Mean tumour volume ([3]; Day 27): 144 mm^3
Median tumour volume ([3]; Day 27): 129 mm^3
Individual tumour volume ([3]; Day 27): 252 mm3 and 289 mm3 and 0 mm3 and 192 mm3 and 168 mm3 and 72 mm3
Mean tumour volume ([3]; Day 31): 153 mm^3
Median tumour volume ([3]; Day 31): 162 mm^3
Individual tumour volume ([3]; Day 31): 184 mm3 and 404 mm3 and 0 mm3 and 204 mm3 and 198 mm3 and 68 mm3
Mean tumour volume ([3]; Day 35): 310 mm^3
Median tumour volume ([3]; Day 35): 317 mm^3
Individual tumour volume ([3]; Day 35): 366 mm3 and 592 mm3 and 0 mm3 and 488 mm3 and 528 mm3 and 122 mm3
Mean tumour volume ([3]; Day 41): 429 mm^3
Median tumour volume ([3]; Day 41): 467 mm^3
Individual tumour volume ([3]; Day 41): 560 mm3 and 844 mm3 and 0 mm3 and 540 mm3 and 634 mm3 and 293 mm3
Mean tumour volume ([3]; Day 45): 577 mm^3
Median tumour volume ([3]; Day 45): 577 mm^3
Individual tumour volume ([3]; Day 45): 918 mm3 and 1256 mm3 and 0 mm3 and 624 mm3 and 731 mm3 and 392 mm3
Mean tumour volume ([3]; Day 48): 664 mm^3
Median tumour volume ([3]; Day 48): 620 mm^3
Individual tumour volume ([3]; Day 48): 912 mm3 and 1672 mm3 and 0 mm3 and 551 mm3 and 833 mm3 and 381 mm3 and 689 mm3
Mean tumour volume ([3]; Day 51): 832 mm^3
Median tumour volume ([3]; Day 51): 712 mm^3
Individual tumour volume ([3]; Day 51): 1485 mm3 and 2035 mm3 and 0 mm3 and 587 mm3 and 900 mm3 and 462 mm3 and 837 mm3
Individual tumour volume ([3]; Day 55): 2080 mm3 and 0 mm3 and 990 mm3 and 1084 mm3 and 600 mm3 and 1309 mm3
Individual tumour volume ([3]; Day 58): 0 mm3 and 1482 mm3 and 1350 mm3 and 842 mm3 and 1665 mm3
Individual tumour volume ([3]; Day 62): 0 mm3 and 1080 mm3 and 1440 mm3 and 640 mm3 and 2057 mm3
Individual tumour volume ([3]; Day 66): 0 mm3 and 1695 mm3 and 1512 mm3 and 666 mm3
Individual tumour volume ([3]; Day 69): 0 mm3 and 1788 mm3 and 1496 mm3 and 950 mm3
Individual tumour volume ([3]; Day 73): 0 mm3 and 1820 mm3 and 1559 mm3 and 1018 mm3
Individual tumour volume ([3]; Day 76): 0 mm3 and 2296 mm3 and 1238 mm3 and 1140 mm3
Individual tumour volume ([3]; Day 80): 0 mm3 and 1520 mm3 and 1254 mm3
Individual tumour volume ([3]; Day 83): 0 mm3 and 1615 mm3 and 1463 mm3
Anti-tumour activity (in words) ([3]; paclitaxel study): significant anti-tumour activity; also recorded: anti-tumour effect greater than that of paclitaxel
T/C ratio ([3]; relative to control group, Day 13 (before treatment)): 95%
T/C ratio ([3]; relative to control group, Day 20): 57%
T/C ratio ([3]; relative to control group, Day 24): 28%
T/C ratio ([3]; relative to control group, Day 27): 25%
T/C ratio ([3]; relative to control group, Day 31): 21%
T/C ratio ([3]; relative to control group, Day 35): 27%
T/C ratio ([3]; relative to control group, Day 41): 29%
T/C ratio ([3]; relative to control, after D20 up to D41 (b191 prints D40)): less than 29%
T/C ratio ([3]; relative to paclitaxel group, Day 13 (before treatment)): 98%
T/C ratio ([3]; relative to paclitaxel group, Day 20): 47%
T/C ratio ([3]; relative to paclitaxel group, Day 24): 35%
T/C ratio ([3]; relative to paclitaxel group, Day 27): 38%
T/C ratio ([3]; relative to paclitaxel group, Day 31): 39%
T/C ratio ([3]; relative to paclitaxel group, Day 35): 32%
